“Also recorded” adds a separate entry of the source.
Tests used:
healthy cats [1] = assay: Observation of general clinical symptoms (adverse events) after administration of beraprost sodium to healthy cats; format: in vivo, cat; design: key to grade of adverse events (diarrhea, vomiting, sedation) / grade of adverse events (vomiting, diarrhea, sedation): no abnormality observed (Grade 0); slight (Grade 1); moderate (Grade 2); severe (Grade 3); conditions: for adverse events (clinical symptoms): 5 healthy cats
Protocol: (§1) In this study, 3 male cats and 2 female cats, totally 5 Japanese cats, aging 3 to 6 years old were used, which were raised in an animal hospital and for which no abnormalities were observed clinically and by blood test. The subject cats were individually placed in each cage in which each cat was allowed to take water ad libitum, and each cat was fed twice a day after measuring the necessary items. For the purpose of acclimatization, the cats were measured for blood pressure noninvasively twice a day for 2 weeks.
Observations of general clinical symptoms caused by administration of beraprost sodium to healthy cats were performed as follows: Whether adverse events such as ataxia, sedation, lying, suffusion of visible mucosa, lacrimation, hypersalivation, vomiting, diarrhea, incontinence and change in respiratory conditions were expressed or not was observed. Observation was performed before administration, and 30 minutes, 1 hour, 2 hours and 3 hours after each administration during the continuous 7 days in which the drug was administered every day. Each evaluation was performed by rating in 4 ranks as follows: Respiratory conditions were ranked into: no abnormality observed (Grade 0); accelerated respiration (Grade 1); hypopnea (Grade 2); and dyspnea (Grade 3). Ataxia was ranked into: no abnormality observed (Grade 0); slight (Grade 1); moderate (Grade 2); and abasia (Grade 3). Sedation (response to verbal contact) and lying (response to verbal contact) were ranked into: no abnormality observed (Grade 0); slight (Grade 1); moderate (Grade 2); and no response (Grade 3). Evaluations of lacrimation, hypersalivation, vomiting, diarrhea and incontinence were ranked into: no abnormality observed (Grade 0); slight (Grade 1); moderate (Grade 2); and severe (Grade 3).
In each administration series, the same cat was used in each administration series as the subject cat for the correctness of the evaluation of the test drug. To eliminate the influence of the test drug of the previous series, wash out period of 2 weeks were given after the termination of the respective series. In the beraprost sodium administration series and the placebo administration series, the solution-containing capsules prepared in Example 2 were used. Administration was performed orally at fasting twice a day at intervals of 12 hours for continuous 7 days.
Statistical analysis was carried out using a statistical software Stat View J-4.5 (Abacus Concepts). Since the parameter values before and after the administration to the same individual are compared, significant test was carried out by the paired t-test. In any of the cases, when the significance level was less than 5%, it was judged as significant.

healthy cats [2] = assay: Blood test and blood chemical analysis in healthy cats; format: in vivo, cat; conditions: after 7 days BID at 10-100 μg/kg oral
Protocol: as §1
Blood test and blood chemical analysis were carried out as follows: Blood was collected before administration of beraprost sodium and on the next day of the termination of continuous administration for 7 days at each dose (the continuous administration of one test compound for 7 days is hereinafter referred to as “1 series”) at fasting, and analyzed. Inspection items in the blood test were RBC, WBC, PCV, Hb and Plat, and those in the blood chemical analysis were AST, ALT, T.P, BUN, Cre, Na, K and Cl.
In each administration series, the same cat was used in each administration series as the subject cat for the correctness of the evaluation of the test drug. To eliminate the influence of the test drug of the previous series, wash out period of 2 weeks were given after the termination of the respective series. […]

cats with renal failure = assay: Body weight of cats with renal failure during administration; format: in vivo, cat
Protocol: […] The administration was conducted every day and continued basically for 6 months, and in cases where the owner desired, the administration was continued even after the test period. The Examples of the present invention include both cases where the dosing period was less than 6 months and more than 6 months.

[3] = tested on: dog with chronic renal failure; assay: Adverse events in dog with chronic renal failure (Case-H); format: in vivo; conditions: 150 μg/capsule oral twice a day alone
Protocol: The subject patient to whom beraprost sodium was to be administered was a female dog (hybrid) of 14 years old with a body weight of 6.4 kg. The patient visited the hospital with chief complaints of anorexia and drastic decrease in activity. Based on the past history, clinical observations and results of clinical test, the dog was diagnosed as chronic renal failure. The clinical score at the first visit was as low as 2 points, and treatment with Covalzin at a dose of 200 mg/BID was started. […] In view of this, after obtaining consent by the client, treatment with Covalzin was stopped, and switched to administration of beraprost sodium alone. Beraprost sodium was diluted with polyethylene glycol (Wako) to attain a dose of 150 μg/capsule, and was divided into capsules (size 5 Shionogi Qualicaps). Beraprost sodium was orally administered twice a day at fasting. […] In the above-described series of therapy, feeding of a formula meal and infusion were not performed at all. […] Based on the above, it was first discovered that in chronic renal failure of dogs, in addition to cats, the effect of beraprost sodium to ameliorate uremic symptoms is clearly shown in spite of the fact that Serum Cre value and BUN value which are markers of renal function indicative of renal failure are continuously worsened.

[4] = tested on: cats with chronic renal failure; assay: Clinical score of uremic symptoms (activity + appetite) in cats with chronic renal failure; format: in vivo, cat; conditions: Case-G; 40 μg/head/BID; Day 14, kept up to Day 56; 3 points before
[5] = tested on: cats with chronic renal failure; assay: Blood biochemical analysis and urinalysis (BUN, serum Cre, glucose) in cats with chronic renal failure; format: in vivo, cat; conditions: Case-G; for Cre: 40 μg/head/BID

CC#CC[C@@H](C)[C@H](O)/C=C/[C@@H]1[C@H]2c3cccc(CCCC(=O)[O-])c3O[C@H]2C[C@H]1O.[Na+] (mixture of isomers) [beraprost sodium, Sodium rac-(1R,2R,3aS,8bS)-2,3,3a,8b-tetrahydro-2-hydroxy-1-[(E)-(3S,4RS)-3-hydroxy-4-methyloct-1-en-6-ynyl]-1H-cyclopenta[b][1]benzofuran-5-butanoate]
adverse events (clinical symptoms) (healthy cats [1]; 10 μg/kg/BID oral, 7 days): not observed at all | adverse events (clinical symptoms) (healthy cats [1]; 30 μg/kg/BID oral, 7 days): not observed at all | grade of adverse events (diarrhea, vomiting, sedation) (healthy cats [1]; 70 μg/kg/BID oral, 7 days): Grade 1 | cases with adverse events such as diarrhea, vomiting and sedation (healthy cats [1]; 70 μg/kg/BID oral, 7 days, sporadic, 2 to 6 days after administration): 2/5 | time of occurrence of adverse events after the administration (healthy cats [1]; 100 μg/kg/BID oral): ≤ 2 h | grade of adverse events (vomiting, diarrhea, sedation) (healthy cats [1]; 100 μg/kg/BID oral, 7 days): Grade 2 | cats with vomiting, diarrhea and sedation (healthy cats [1]; 100 μg/kg/BID oral, 7 days, from Day 2, frequent): all cats | reversibility of adverse events (healthy cats [1]; 70 and 100 μg/kg/BID series, after 7 days): disappeared by the next day of the final administration | blood cell count, electrolytes, renal function and liver function (healthy cats [2]): no adverse change was observed | Changes in Body Weight during Administration of Beraprost Sodium (cats with renal failure; Case-A, age 5, month 0): 5.2 kg | Changes in Body Weight during Administration of Beraprost Sodium (cats with renal failure; Case-A, month 1): 5.5 kg | Changes in Body Weight during Administration of Beraprost Sodium (cats with renal failure; Case-A, month 2): 5.5 kg | Changes in Body Weight during Administration of Beraprost Sodium (cats with renal failure; Case-A, month 3): 5.5 kg | Changes in Body Weight during Administration of Beraprost Sodium (cats with renal failure; Case-A, month 4): 5.7 kg | Changes in Body Weight during Administration of Beraprost Sodium (cats with renal failure; Case-A, month 5): 5.7 kg | Changes in Body Weight during Administration of Beraprost Sodium (cats with renal failure; Case-A, month 6): 6.0 kg | Changes in Body Weight during Administration of Beraprost Sodium (cats with renal failure; Case-B, age 4, month 0): 3.5 kg | Changes in Body Weight during Administration of Beraprost Sodium (cats with renal failure; Case-B, month 1): 3.6 kg | Changes in Body Weight during Administration of Beraprost Sodium (cats with renal failure; Case-B, month 2): 3.6 kg | Changes in Body Weight during Administration of Beraprost Sodium (cats with renal failure; Case-B, month 3): 3.7 kg | Changes in Body Weight during Administration of Beraprost Sodium (cats with renal failure; Case-B, month 4): 3.9 kg | Changes in Body Weight during Administration of Beraprost Sodium (cats with renal failure; Case-B, month 5): 4.0 kg | Changes in Body Weight during Administration of Beraprost Sodium (cats with renal failure; Case-B, month 6): 4.0 kg | body weight (cats with renal failure; Case-B, with amelioration of uremic symptoms): increased | Changes in Body Weight during Administration of Beraprost Sodium (cats with renal failure; Case-C, age 16, month −1 (before administration)): 2.8 kg | Changes in Body Weight during Administration of Beraprost Sodium (cats with renal failure; Case-C, month 0): 2.7 kg | Changes in Body Weight during Administration of Beraprost Sodium (cats with renal failure; Case-C, month 1): 2.8 kg | Changes in Body Weight during Administration of Beraprost Sodium (cats with renal failure; Case-C, month 2): 2.9 kg | Changes in Body Weight during Administration of Beraprost Sodium (cats with renal failure; Case-C, month 3): 2.9 kg | Changes in Body Weight during Administration of Beraprost Sodium (cats with renal failure; Case-C, month 4): 2.9 kg | Changes in Body Weight during Administration of Beraprost Sodium (cats with renal failure; Case-C, month 5): 3.0 kg | Changes in Body Weight during Administration of Beraprost Sodium (cats with renal failure; Case-C, month 6): 3.0 kg | Changes in Body Weight during Administration of Beraprost Sodium (cats with renal failure; Case-D, age 17, month −1 (before administration)): 4.5 kg | body weight (cats with renal failure; Case-D, after one month): increased | Changes in Body Weight during Administration of Beraprost Sodium (cats with renal failure; Case-D, month 0): 4.5 kg | Changes in Body Weight during Administration of Beraprost Sodium (cats with renal failure; Case-D, month 1): 4.5 kg | Changes in Body Weight during Administration of Beraprost Sodium (cats with renal failure; Case-D, month 2): 4.9 kg | Changes in Body Weight during Administration of Beraprost Sodium (cats with renal failure; Case-D, month 3): 4.9 kg | Changes in Body Weight during Administration of Beraprost Sodium (cats with renal failure; Case-D, month 4): 4.9 kg | Changes in Body Weight during Administration of Beraprost Sodium (cats with renal failure; Case-D, month 5): 4.9 kg | Changes in Body Weight during Administration of Beraprost Sodium (cats with renal failure; Case-E, age 14, combination therapy, month 0): 3.5 kg | Changes in Body Weight during Administration of Beraprost Sodium (cats with renal failure; Case-E, combination therapy, month 1): 3.8 kg | Changes in Body Weight during Administration of Beraprost Sodium (cats with renal failure; Case-E, combination therapy, month 2): 3.7 kg | Changes in Body Weight during Administration of Beraprost Sodium (cats with renal failure; Case-E, combination therapy, month 3): 3.6 kg | Changes in Body Weight during Administration of Beraprost Sodium (cats with renal failure; Case-E, combination therapy, month 4): 3.7 kg | Changes in Body Weight during Administration of Beraprost Sodium (cats with renal failure; Case-E, combination therapy, month 5): 3.7 kg | Changes in Body Weight during Administration of Beraprost Sodium (cats with renal failure; Case-E, combination therapy, month 6): 3.6 kg | Changes in Body Weight during Administration of Beraprost Sodium (cats with renal failure; Case-F, age 11, combination therapy, month 0): 4.7 kg | Changes in Body Weight during Administration of Beraprost Sodium (cats with renal failure; Case-F, combination therapy, month 1): 5.0 kg | Changes in Body Weight during Administration of Beraprost Sodium (cats with renal failure; Case-F, combination therapy, month 2): 5.0 kg | Changes in Body Weight during Administration of Beraprost Sodium (cats with renal failure; Case-F, combination therapy, month 3): 5.5 kg | Changes in Body Weight during Administration of Beraprost Sodium (cats with renal failure; Case-F, combination therapy, month 4): 5.5 kg | Changes in Body Weight during Administration of Beraprost Sodium (cats with renal failure; Case-F, combination therapy, month 5): 5.7 kg | Changes in Body Weight during Administration of Beraprost Sodium (cats with renal failure; Case-F, combination therapy, month 6): 5.8 kg | body weight (cats with renal failure; Case-G, 40 μg/head/BID, Day 14): 3.83 kg | body weight (cats with renal failure; Case-G, 40 μg/head/BID, Day 56): 3.95 kg | body weight (cats with renal failure; Case-G, before the administration (baseline)): 3.2 kg | adverse events such as diarrhea, vomiting [3]: no adverse event; also recorded: no adverse action | clinical score (full points 5) [4]: 5 points | BUN value ([5]; 40 μg/head/BID tablets alone): almost kept constant | Cre ([5]; Day 28): 2.79 mg/dL | Cre ([5]; Day 56): 3.02 mg/dL

Source: patent US9783518B2, “Therapeutic agent and treatment method for ameliorating uremia” (Toray Industries, Inc., priority 2005, dated 2017)
